According to patent publication US20250163051A1, “PYRIMIDO AROMATIC RING COMPOUND AND USE THEREOF IN DRUG” (SUNSHINE LAKE PHARMA CO., LTD., priority 2022, published 2025):

How the values were obtained:
[1] = molecular target: T1, hERG channel (Homo sapiens, UniProt Q12809); assay: hERG channel current in HEK293 cells, automated patch clamp; assay type: cell-based; conditions: HEK-293 cells stably expressing hERG, whole-cell patch clamp, 0.3-30 μM
T1 construct: expressed in transfected cells; host or cells: HEK-293 cells stably expressing hERG
T1 sequence (Q12809 whole entry): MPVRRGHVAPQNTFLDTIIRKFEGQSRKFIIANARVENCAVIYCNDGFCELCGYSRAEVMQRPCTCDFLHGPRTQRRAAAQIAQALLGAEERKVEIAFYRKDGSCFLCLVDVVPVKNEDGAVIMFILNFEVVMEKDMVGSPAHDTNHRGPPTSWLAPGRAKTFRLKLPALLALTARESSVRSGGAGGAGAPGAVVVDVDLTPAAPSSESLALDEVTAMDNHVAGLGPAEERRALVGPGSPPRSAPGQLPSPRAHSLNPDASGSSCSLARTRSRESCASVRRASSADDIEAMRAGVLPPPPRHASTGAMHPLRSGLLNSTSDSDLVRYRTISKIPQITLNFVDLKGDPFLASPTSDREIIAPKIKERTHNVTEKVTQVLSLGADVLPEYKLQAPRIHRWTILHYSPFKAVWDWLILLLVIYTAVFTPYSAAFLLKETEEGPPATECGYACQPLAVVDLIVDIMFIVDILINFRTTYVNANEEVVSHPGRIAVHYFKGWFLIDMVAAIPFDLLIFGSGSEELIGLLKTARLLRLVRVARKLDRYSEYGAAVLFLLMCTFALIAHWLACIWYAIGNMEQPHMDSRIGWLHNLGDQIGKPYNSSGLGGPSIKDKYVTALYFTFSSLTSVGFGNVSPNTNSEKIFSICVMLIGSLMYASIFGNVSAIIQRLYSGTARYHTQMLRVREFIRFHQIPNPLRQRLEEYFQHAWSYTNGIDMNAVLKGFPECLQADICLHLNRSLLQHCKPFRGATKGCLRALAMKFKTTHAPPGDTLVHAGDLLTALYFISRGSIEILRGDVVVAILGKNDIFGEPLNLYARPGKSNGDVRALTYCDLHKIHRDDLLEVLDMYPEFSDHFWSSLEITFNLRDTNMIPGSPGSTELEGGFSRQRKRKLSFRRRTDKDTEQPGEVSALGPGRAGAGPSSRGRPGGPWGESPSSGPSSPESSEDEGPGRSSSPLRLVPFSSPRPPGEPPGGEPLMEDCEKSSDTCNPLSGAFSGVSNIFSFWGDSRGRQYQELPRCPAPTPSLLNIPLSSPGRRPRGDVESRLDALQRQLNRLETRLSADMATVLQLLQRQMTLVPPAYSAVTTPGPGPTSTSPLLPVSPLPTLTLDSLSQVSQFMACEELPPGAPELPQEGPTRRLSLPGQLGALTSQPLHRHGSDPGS
Experimental: Test 2: Detection of the Effect of Compounds on hERG Channel Currents Stably Expressed in HEK293 Cells Using Automated Patch Clamp
Experimental purpose: The concentration-effect relationship of the blocking effect of the compounds on hERG channels was determined using the patch clamp technique and HEK-293 cells stably expressing hERG channels to evaluate their risk of inhibitory effect on cardiac hERG potassium channels.
Experimental method: hERG cells were clamped using the patch clamp technique to form a high-resistance seal and then the membrane was broken. The whole-cell recording mode was used to record the hERG current. Each drug concentration was set to be administered twice for at least 5 minutes. The test concentrations were 0.3 μM, 1 μM, 3 μM, 10 μM and 30 μM, and the changes of the test compounds on hERG current were observed.

[2] = system: CYP1A2; assay: Induction of CYP1A2 in frozen human hepatocytes; assay type: in vitro ADME; conditions: 72 h induction, concentration and readout not stated
Experimental: (§1) Experimental purpose: Using frozen human hepatocytes as the test system, the induction effects of the test substances on CYP1A2, CYP2B6 and CYP3A4 were evaluated from two aspects of enzyme activity and mRNA level.
(§2) Experimental method: 24 hours after cell plating, induction was started by adding medium containing the test compound (test concentrations were 10, 1, and 0.1 μM), and fresh drug-containing medium was replaced every 24 hours. After 72 hours of induction, the medium was replaced with medium containing CYP1A2, CYP2B6, and CYP3A4 specific substrates for 30 minutes of incubation. 100 μL was taken for treatment, and the labeled metabolites of the substrates were detected to evaluate the enzyme activity level. Finally, the cells were lysed and reverse transcribed, and the expression levels of CYP1A2, CYP2B6 and CYP3A4 genes in the cells were evaluated by real-time quantitative PCR.
(§3) The induction fold of the test compound compared with the blank control and the induction percentage of the test compound compared with the positive control were used as the basis for evaluating the induction potential of the test compound. Among them, the positive control for CYP1A2 is Omeprazole; the positive control for CYP2B6 is Phenobarbital; the positive control for CYP3A4 is Rifampicin.

[3] = system: CYP2B6; assay: Induction of CYP2B6 in frozen human hepatocytes; assay type: in vitro ADME; conditions: 72 h induction, concentration and readout not stated; for CYP2B6 Induction percentage relative to positive control (%): positive control Phenobarbital
Experimental: as §1, §2, §3

[4] = system: CYP3A4; assay: Induction of CYP3A4 in frozen human hepatocytes; assay type: in vitro ADME; conditions: 72 h induction, concentration and readout not stated; for CYP3A4 Induction percentage relative to positive control (%): positive control Rifampicin
Experimental: as §1, §2, §3

[5] = molecular target: T2, hTLR8 (Homo sapiens, UniProt Q9NR97); assay: Agonistic activity on human TLR8 in HEK-Blue hTLR8 cells (QUANTI-Blue); assay type: cell-based; conditions: 24 h incubation, OD650, read-out: hTLR 8 EC50
T2 construct: expressed in transfected cells; host or cells: HEK-Blue hTLR8 cells
T2 sequence (Q9NR97 27-1041): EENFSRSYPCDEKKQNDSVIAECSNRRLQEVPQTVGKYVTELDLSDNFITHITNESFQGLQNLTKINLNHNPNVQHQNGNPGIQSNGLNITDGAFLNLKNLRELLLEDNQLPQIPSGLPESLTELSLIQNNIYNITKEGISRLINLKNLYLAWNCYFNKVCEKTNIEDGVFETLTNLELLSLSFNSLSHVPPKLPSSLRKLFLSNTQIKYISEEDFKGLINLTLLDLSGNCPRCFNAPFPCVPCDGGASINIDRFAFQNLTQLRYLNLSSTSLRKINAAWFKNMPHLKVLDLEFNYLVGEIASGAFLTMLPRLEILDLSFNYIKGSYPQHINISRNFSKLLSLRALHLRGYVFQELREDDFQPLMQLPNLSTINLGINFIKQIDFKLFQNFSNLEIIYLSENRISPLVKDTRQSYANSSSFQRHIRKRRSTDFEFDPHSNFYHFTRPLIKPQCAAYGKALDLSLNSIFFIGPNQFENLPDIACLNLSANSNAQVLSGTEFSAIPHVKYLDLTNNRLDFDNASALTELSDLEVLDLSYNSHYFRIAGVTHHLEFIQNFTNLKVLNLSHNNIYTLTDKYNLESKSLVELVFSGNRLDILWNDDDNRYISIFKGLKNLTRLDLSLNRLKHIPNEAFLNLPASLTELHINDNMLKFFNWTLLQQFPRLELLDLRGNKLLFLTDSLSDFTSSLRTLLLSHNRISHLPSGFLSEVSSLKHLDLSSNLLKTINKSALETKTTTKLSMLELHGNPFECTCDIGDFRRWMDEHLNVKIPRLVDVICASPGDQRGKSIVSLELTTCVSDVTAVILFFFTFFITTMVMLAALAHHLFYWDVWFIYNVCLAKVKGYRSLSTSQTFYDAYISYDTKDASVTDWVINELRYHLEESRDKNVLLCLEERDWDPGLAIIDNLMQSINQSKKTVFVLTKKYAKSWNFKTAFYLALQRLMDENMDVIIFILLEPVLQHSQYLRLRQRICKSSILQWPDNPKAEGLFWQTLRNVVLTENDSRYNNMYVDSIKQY
Experimental: (§4) Purpose: HEK-Blue™ hTLR7 and HEK-Blue™ hTLR8 cells were used to detect the agonist and cytotoxic activities of compounds against hTLR7 and hTLR8.
(§5) The experimental steps were as shown below: • 1) Preparation of compound: The compound was prepared into a 20 mM stock solution with DMSO, and then the stock solution was diluted 3-fold in a gradient and added to a 96-well plate, for a total of 10 concentrations, with duplicate wells for each concentration. For negative control wells, 0.5 μL DMSO was added to each well. The final DMSO concentration was 0.5%. • 2) HEK-Blue™ hTLR7 or HEK-Blue™ hTLR8 cells were suspended in culture medium and then seeded into 96-well plates containing compounds at a cell count of 50,000 per well. The compounds and cells were incubated for 24 h at 37° C., 5% Co2. • 3) QUANTI-Blue was used for the detection solution: to a mixture of 1 mL of QB reagent and 1 mL of QB buffer was added 98 mL of sterile water, the mixture was mixed and dissolved, and then placed at room temperature for 10 min. • 4) Activity test of the compound: 20 μL of the culture supernatant in step 2) was added to each well of a 96-well plate containing 180 μL of QUANTI-Blue detection solution. After incubation at 37° C. for 1 h, the absorbance at 650 nm (OD650) was detected using a multifunctional microplate reader Flextation III. • 5) Detection of cell activity: The chemiluminescent signal (RLU) was detected using the multifunctional microplate reader Flextation III according to the instructions of Celltiter-Glo. • 6) Data analysis
(§6) Activity of compounds: OD650 values were analyzed using GraphPad Prism software, and the compound dose-effect curves were fitted to calculate the EC50 values of the compounds.

[6] = molecular target: T3, hTLR7 (Homo sapiens, UniProt Q9NYK1); assay: Agonistic activity on human TLR7 in HEK-Blue hTLR7 cells (QUANTI-Blue); assay type: cell-based; conditions: 24 h incubation, OD650, read-out: hTLR 7 EC50
T3 construct: expressed in transfected cells; host or cells: HEK-Blue hTLR7 cells
T3 sequence (Q9NYK1 27-1049): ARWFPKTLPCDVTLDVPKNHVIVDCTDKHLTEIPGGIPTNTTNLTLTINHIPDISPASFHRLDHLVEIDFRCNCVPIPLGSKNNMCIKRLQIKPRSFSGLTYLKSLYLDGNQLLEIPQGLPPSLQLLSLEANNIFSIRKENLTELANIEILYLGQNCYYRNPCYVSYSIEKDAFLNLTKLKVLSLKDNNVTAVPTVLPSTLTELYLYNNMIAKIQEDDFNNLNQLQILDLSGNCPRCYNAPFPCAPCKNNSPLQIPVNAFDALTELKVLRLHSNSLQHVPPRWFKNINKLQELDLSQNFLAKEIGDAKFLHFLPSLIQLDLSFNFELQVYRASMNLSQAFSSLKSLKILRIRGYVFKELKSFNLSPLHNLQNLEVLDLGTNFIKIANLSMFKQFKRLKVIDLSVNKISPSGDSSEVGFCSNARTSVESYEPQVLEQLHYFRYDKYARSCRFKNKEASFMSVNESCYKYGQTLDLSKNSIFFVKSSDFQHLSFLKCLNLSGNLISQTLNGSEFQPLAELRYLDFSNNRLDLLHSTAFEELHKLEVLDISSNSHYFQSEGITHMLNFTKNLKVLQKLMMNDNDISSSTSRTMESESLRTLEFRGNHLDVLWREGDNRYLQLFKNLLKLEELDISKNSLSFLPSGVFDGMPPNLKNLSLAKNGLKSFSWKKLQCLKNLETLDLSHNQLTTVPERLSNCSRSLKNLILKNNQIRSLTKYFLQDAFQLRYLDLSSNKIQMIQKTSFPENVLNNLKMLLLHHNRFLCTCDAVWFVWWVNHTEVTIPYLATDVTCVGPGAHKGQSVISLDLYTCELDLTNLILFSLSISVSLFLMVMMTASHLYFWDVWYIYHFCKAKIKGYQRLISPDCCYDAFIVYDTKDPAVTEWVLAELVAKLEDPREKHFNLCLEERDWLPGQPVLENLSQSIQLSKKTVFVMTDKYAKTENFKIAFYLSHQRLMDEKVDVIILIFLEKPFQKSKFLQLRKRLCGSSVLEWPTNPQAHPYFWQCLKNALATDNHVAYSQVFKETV
Experimental: as §4, §5, §6

[7] = in vitro; conditions: human
Experimental: as §4, §5
(§7) Detection of cell activity: The calculation formula for cell activity % is as follows.
(§8) The cell activity % values were analyzed using GraphPad Prism software, and the compound dose-effect curves were fitted to calculate the CC50 values of the compounds.
(§9) Cell activity %=RLU compound/RLU DMSO Control*100%

[8] = Cell toxicity (Celltiter-Glo) in HEK-Blue hTLR8 cells; conditions: human
Experimental: as §4, §5, §7, §8, §9

| Compound | IC50 [1] [µM] | CYP1A2 Induction fold relative to blank control [2] | CYP2B6 Induction fold relative to blank control [3] | CYP2B6 Induction percentage relative to positive control (%) [3] [%] | CYP3A4 Induction fold relative to blank control [4] | CYP3A4 Induction percentage relative to positive control (%) [4] [%] | EC50 [5] [µM] | EC50 [6] [µM] | CC50 at 24 h [7] [µM] | CC50 at 24 h [8] [µM] |
| --- | --- | --- | --- | --- | --- | --- | --- | --- | --- | --- |
| CCCC[C@](C)(CO)Nc1nc(N)nc2cc(F)cnc12 [Comparative compounds, (R)-2-((2-amino-7-fluoropyrido[3,2-d]pyrimidin-4-yl)amino)-2-methylhexan-1-ol, reference compound] | 3.3 | 2.6 | 3.6 | 24.5 | 9.5 | 15.8 | – | – | – | – |
| CCCC[C@](C)(CO)Nc1nc(N)nc2cc(-c3cc(=O)n(C)cc3CN3CCNCC3)cnc12 [Example 5] | – | – | – | – | – | – | 2.72 | > 100 | > 100 | – |
| C=CCCN(C)Cc1c[nH]c(=O)cc1-c1cnc2c(N[C@@](C)(CO)CCCC)nc(N)nc2c1 [Example 9, (R)-4-(2-Amino-4-((1-hydroxy-2-methylhexan-2-yl)amino)pyrido[3,2-d]pyrimidin-7-yl)-5-((but-3-en-1-yl(methyl)amino)methyl)pyridin-2(1H)-one] | 24.7 | 1.0 | 1.3 | 4.2 | 4.2 | 2.0 | 0.02 | 31.8 | – | > 100 |
